Test results reported in patent publication US20210267240A1, “PHOTODETERIORATION INHIBITOR, BEVERAGE COMPRISING THE SAME, AND METHOD FOR INHIBITING PHOTODETERIORATION” (Mitsubishi Gas Chemical Company, Inc., priority 2018, published 2021).

Experiment: Light irradiation storage test of aqueous pyrroloquinoline quinone disodium salt solution in a transparent PET container, HPLC recovery
Format: physicochemical
Conditions: used alone, without combination partner
Experimental: HPLC conditions: Shimadzu LC-2010 Column: YMC-Pack ODS-A Detection wavelength: 259 nm Mobile phase: 30 mM acetic acid-70 mM ammonium acetate Column temperature: 40° C. Light irradiation apparatus: A plant incubator CLH-301 manufactured by Tomy Seiko Co., Ltd. Light irradiation conditions: 30° C. and 20,000Lx All the contents of Volvic that is a commercially available PET bottle beverage, were removed and the container was washed with water. This transparent container was used as a storage container. 5 to 500 mg of BioPQQ was dissolved in 500 g of water, and the relationship between the concentration and the photodeterioration of BioPQQ was examined. First, a mixture of pyrroloquinoline quinone disodium salt and water was added to the storage container, shaken well, and then submitted to ultrasonication for 1 minute to dissolve the salt. The pH was 3.5. The prepared aqueous solution of pyrroloquinoline quinone disodium salt was stored under the above light irradiation conditions. The concentration of pyrroloquinoline quinone was analyzed by HPLC 5 days after the light irradiation. […] 20 mg of BioPQQ was dissolved in 500 g of water ([…]) in the same manner as described above. To this aqueous solution, 100 mg of Red No. 2 was further added (Example A1). […]

## O=C1O[C@H]([C@@H](O)CO)C(O)=C1O [ascorbic acid]
  photodeterioration inhibition effect (in words): has a photodeterioration inhibition effect
